In patent publication US7138242B2, “Olfactory receptor expression libraries and methods of making and using them” (Johns Hopkins University, priority 1998, dated 2006):

Key:
[1] = test system: mouse olfactory receptor TM II–VII chimeric receptor library (pools of clones); experiment: Ca2+ imaging screen of 80 library chimeric receptors (10 pools of eight constructs) against 26 odorants in HEK-293 cells with Gα15,16; assay type: cell-based; details: for intracellular Ca2+ response of a clone pool: odorants applied sequentially; for response of a library receptor: micromolar concentrations, three receptors, respectively
Procedure: (§1) HEK-293 cells (obtained from the ATCC) were grown in DMEM supplemented with 10% fetal bovine serum, penicillin (100 U/ml), streptomycin (100 μg/ml) and L-glutamine (2 mM) in 5% CO2. Before transfection, the cells were seeded onto poly-L-lysine-coated 10.5×35×0.17 mm glass coverslips (Bellco) placed in the 60 mm culture dishes. Calcium phosphate-mediated transfections were performed in a 60 mm dish with 3 to 4 μg of receptor construct DNA, 1 μg of pCIS Gα 15 and Gα16 expression vector (Offermanns (1995) supra). 2 μg of pBluescript carrier DNA, and 0.3 μg of pRSV-T antigen expression vector (Gorman (1990) DNA and Protein Eng. Tech. 2:3–9). After 5 to 7 hr incubation, the cells were washed once with PBS containing 0.5 mM EDTA and 10% DMSO, then with PBS before continuing growth in regular media for 40–50 hr.
(§2) These transfected cells were then tested for their ability to functionally respond to ligand-receptor binding. The ligand, the adrenergic agonist isoproterenol, was “bath” applied to the transfected cells and single cell Ca^2+-imaging was performed. Cells were pre-loaded with the Ca^2+-sensitive fluorescent dye FURA-2 AM (Molecular Probes) by bathing in serum-free DMEM containing 4 μM of the membrane permeant chemical for 1 hr at 37° C., then washed with a standard bath solution (130 mM NaCl, 2 mM CaCl2, 5 mM KCl, 10 mM glucose, 10 mM Na.HEPES/pH 7.4 at room temperature). For each experiment, a glass coverslip with FURA-2 loaded HEK 293 cells was introduced into an open-topped, longitudinal microperfusion chamber (300 μl bath volume mounted on a Zeiss Axiovert 135 microscope equipped with an F Fluar 40×/1.30 oil-immersion lens. The cells were superfused with test solutions typically for 30 to 40 seconds (5 ml/application) and washed out with 5 ml of bath solution at the end of each application. Each test solution was freshly diluted and manually applied with a micropipette into the chamber. Because of this manual procedure, there could be several seconds of delay in actual application from electronic tick marks used to define the beginning of application in each graph. At the same time, the solution flow might not be completely laminar. In most cases, the onset of Ca2+ rise in response to a specific solution occurred within 15 seconds of the beginning of solution application, though longer delays were sometimes observed. Acetylcholine was applied at the end of each experiment at 10 μM for 15–20 seconds. Ratiometric Ca^2+ measurements were performed as described by Grynkiewicz (1985) 260:3440–3450, with modifications using the Zeiss/Attofluor-Ratiovision imaging system. At 5-second intervals, the cells were sequentially illuminated for less than 100 ms, first at 340 nm and then at 380 nm. Fluorescence emission at 510 nm was monitored for each excitation wavelength via an intensified CCD camera. Averaged pixel intensities within 40 to 100 regions of interest, corresponding to 40 to 100 individual cells, were digitized and stored on a computer. Attofluor-Ratiovision software (Atto Instruments) was used to determine the Ca^2+-dependent fluorescence signal expressed as the F340/F380 ratio.
The 7-transmembrane domain region TM II–VII expressing vector libraries of the invention were expressed in this cell expression system. Various odorant were screened for their ability to generate a physiologic response in the form of a calcium transient, as above. Eighty plasmid clones arrayed in microtiter plates were pooled into 10 groups of eight constructs each, and co-transfected with Gα15,16 into HEK-293 cells. […]

[2] = test system: full-length I-C6 receptor fused to translocation domain (rhodopsin tag); experiment: Ca2+ imaging, full-length I-C6 receptor with rhodopsin tag in HEK-293 cells; assay type: cell-based, mouse
Procedure: PCR products were digested with PstI and BspEI restriction enzymes before size fractionation, purification and ligation into the pCMV-Rho/M4NC vector (see FIG. 1A). The vector ligation products were transformed into E. coli and 480 clones were placed in 96-well plates. […] Pools of cells from a single column of the plates (8 wells) were grown in a 50 ml culture and plasmid DNA prepared. Insert-containing vectors containing: the 5′-untranslated region of the rhodopsin gene, which included its coding region for the initiation methionine and the next 19 residues; joined to a full-length cDNA for a mouse olfactory receptor (M4 or I-C6), under the control of the CMV promoter, were also prepared. The full-length coding region of olfactory receptors mI7 and I-C6 were obtained by screening a mouse (129 SV/J) genomic phage (λFIX-II) library (2×10^6 independent clones) using ^32P-labeled DNA fragments (of TMII through VII sequence) of the respective receptors under stringent conditions (hybridized at 0.2×SSC at 65° C.). DNA fragments encoding the full-length receptors were cloned into pBluescript (Stratagene) and sequenced.
as §2
To determine if these physiologic responses were caused by ligand interaction with a full-length 7-membrane receptor, a genomic clone of the entire I-C6 receptor coding sequence was isolated and used to make a chimeric molecule incorporating the tranlocation domain of the invention (the “rhodopsin tag” sequence). The full-length I-C6 receptor retained the same stereo-selectivity as a chimeric receptor construct whose only I-C6 sequence was the transmembrane domains II through VII (i.e., the odorant/ligand binding domain). […]

[3] = test system: I-G7 chimeric olfactory receptor; experiment: Ca2+ imaging, individual clone I-G7 in HEK-293 cells with Gα15,16; assay type: cell-based, mouse; details: 10 μM
Procedure: These transfected cells were then tested for their ability to functionally respond to ligand-receptor binding. The ligand, the adrenergic agonist isoproterenol, was “bath” applied to the transfected cells and single cell Ca^2+-imaging was performed. Cells were pre-loaded with the Ca^2+-sensitive fluorescent dye FURA-2 AM (Molecular Probes) by bathing in serum-free DMEM containing 4 μM of the membrane permeant chemical for 1 hr at 37° C., then washed with a standard bath solution (130 mM NaCl, 2 mM CaCl2, 5 mM KCl, 10 mM glucose, 10 mM Na.HEPES/pH 7.4 at room temperature). For each experiment, a glass coverslip with FURA-2 loaded HEK 293 cells was introduced into an open-topped, longitudinal microperfusion chamber (300 μl bath volume mounted on a Zeiss Axiovert 135 microscope equipped with an F Fluar 40×/1.30 oil-immersion lens. The cells were superfused with test solutions typically for 30 to 40 seconds (5 ml/application) and washed out with 5 ml of bath solution at the end of each application. Each test solution was freshly diluted and manually applied with a micropipette into the chamber. Because of this manual procedure, there could be several seconds of delay in actual application from electronic tick marks used to define the beginning of application in each graph. At the same time, the solution flow might not be completely laminar. In most cases, the onset of Ca2+ rise in response to a specific solution occurred within 15 seconds of the beginning of solution application, though longer delays were sometimes observed. Acetylcholine was applied at the end of each experiment at 10 μM for 15–20 seconds. Ratiometric Ca^2+ measurements were performed as described by Grynkiewicz (1985) 260:3440–3450, with modifications using the Zeiss/Attofluor-Ratiovision imaging system. […] Fluorescence emission at 510 nm was monitored for each excitation wavelength via an intensified CCD camera. […] Attofluor-Ratiovision software (Atto Instruments) was used to determine the Ca^2+-dependent fluorescence signal expressed as the F340/F380 ratio. […]

[4] = test system: I-D3 chimeric olfactory receptor; experiment: Ca2+ imaging, individual clone I-D3 in HEK-293 cells with Gα15,16; assay type: cell-based, mouse
Procedure: These transfected cells were then tested for their ability to functionally respond to ligand-receptor binding. The ligand, the adrenergic agonist isoproterenol, was “bath” applied to the transfected cells and single cell Ca^2+-imaging was performed. Cells were pre-loaded with the Ca^2+-sensitive fluorescent dye FURA-2 AM (Molecular Probes) by bathing in serum-free DMEM containing 4 μM of the membrane permeant chemical for 1 hr at 37° C., then washed with a standard bath solution (130 mM NaCl, 2 mM CaCl2, 5 mM KCl, 10 mM glucose, 10 mM Na.HEPES/pH 7.4 at room temperature). […] Fluorescence emission at 510 nm was monitored for each excitation wavelength via an intensified CCD camera. […] Attofluor-Ratiovision software (Atto Instruments) was used to determine the Ca^2+-dependent fluorescence signal expressed as the F340/F380 ratio. […]

[5] = test system: Rho/M4NC-β2 TM II–VII (TM II–VII region from the β2-adrenergic receptor in pCMV-Rho/M4NC); experiment: Single-cell FURA-2 Ca2+ imaging, HEK-293 cells co-transfected with Rho/M4NC-β2 TM II–VII and Gα15,16; assay type: cell-based, human
Procedure: HEK-293 cells (obtained from the ATCC) were grown in DMEM supplemented with 10% fetal bovine serum, penicillin (100 U/ml), streptomycin (100 μg/ml) and L-glutamine (2 mM) in 5% CO2. […] After 5 to 7 hr incubation, the cells were washed once with PBS containing 0.5 mM EDTA and 10% DMSO, then with PBS before continuing growth in regular media for 40–50 hr.
Efficient screening of expressed olfactory receptors with a large number of ligands by functional analysis requires a robust and sensitive assay system. […] In this reporter system, (olfactory) receptor activation leads to the generation of an IP3-mediated increase in intracellular Ca^2+, which can be measured at the single-cell level with high sensitivity and good temporal resolution using the dye FURA-2 and radiofluorometric imaging.
A construct with the TM II–VII region from the β2-adrenergic receptor inserted in the pCMV-Rho/M4NC vector (Rho/M4NC-β2 TM II–VII) was co-transfected with Gα15,16 into HEK-293 cells. […] Images of fluorescent cells were obtained on a Zeiss 510 confocal microscope with excitation at 488 nm.
These transfected cells were then tested for their ability to functionally respond to ligand-receptor binding. The ligand, the adrenergic agonist isoproterenol, was “bath” applied to the transfected cells and single cell Ca^2+-imaging was performed. Cells were pre-loaded with the Ca^2+-sensitive fluorescent dye FURA-2 AM (Molecular Probes) by bathing in serum-free DMEM containing 4 μM of the membrane permeant chemical for 1 hr at 37° C., then washed with a standard bath solution (130 mM NaCl, 2 mM CaCl2, 5 mM KCl, 10 mM glucose, 10 mM Na.HEPES/pH 7.4 at room temperature). […] Acetylcholine was applied at the end of each experiment at 10 μM for 15–20 seconds. […] At 5-second intervals, the cells were sequentially illuminated for less than 100 ms, first at 340 nm and then at 380 nm. Fluorescence emission at 510 nm was monitored for each excitation wavelength via an intensified CCD camera. Averaged pixel intensities within 40 to 100 regions of interest, corresponding to 40 to 100 individual cells, were digitized and stored on a computer. Attofluor-Ratiovision software (Atto Instruments) was used to determine the Ca^2+-dependent fluorescence signal expressed as the F340/F380 ratio.

[6] = test system: endogenous β-adrenergic receptors; experiment: Single-cell FURA-2 Ca2+ imaging, HEK-293 cells transfected with the G protein subunits (Gα15,16) alone; assay type: cell-based, human; details: no receptor construct
Procedure: as §1
These transfected cells were then tested for their ability to functionally respond to ligand-receptor binding. The ligand, the adrenergic agonist isoproterenol, was “bath” applied to the transfected cells and single cell Ca^2+-imaging was performed. […] Fluorescence emission at 510 nm was monitored for each excitation wavelength via an intensified CCD camera. […] Attofluor-Ratiovision software (Atto Instruments) was used to determine the Ca^2+-dependent fluorescence signal expressed as the F340/F380 ratio. […]

Compound: CC(C)=CCCC(C)CC=O (single isomer, unassigned; (+)) [(+) citronellal]
- intracellular Ca2+ response of a clone pool ([1]; 10 μM): absence of response
- qualitative rank order of potency for binding and activating the I-C6 receptor [2]: (−)citronellal>(+)citronellal, citronellyl bromide>28 other odorants
- intracellular Ca2+ response ([2]; 30 μM): elicit a response
- intracellular Ca2+ response ([2]; 100 μM): elicit a response

Compound: C=C(C)C1CC=C(C)CC1 (single isomer, unassigned; (+)) [(+) limonene]
- intracellular Ca2+ response of a clone pool ([1]; 10 μM): transient increases in Ca^2+
- intracellular Ca2+ response [3]: responded

Compound: C=C(C)C1CC=C(C)C(=O)C1 (single isomer, unassigned; (-)) [(−) carvone]
- intracellular Ca2+ response of a clone pool ([1]; 10 μM): transient increases in Ca^2+
- Ca2+ response of a clone pool to a second application ([1]; 10 μM, second application): second response to (−) carvone could still be elicited
- intracellular Ca2+ response [4]: responsive

Compound: CC(C)=CCCC(C)CC(=O)O (single isomer, unassigned; (-)) [(−) citronellic acid]
- intracellular Ca2+ response ([2]; 30 μM): only 30 μM (−) citronellyl bromide elicited a small response

Compound: CC(C)=CCCC(C)CCO (single isomer, unassigned; (-)) [(−) citronellol]
- intracellular Ca2+ response ([2]; 30 μM): only 30 μM (−) citronellyl bromide elicited a small response

Compound: CC(C)=CCCC(C)CCBr (single isomer, unassigned; (-)) [(−) citronellyl bromide]
- qualitative rank order of potency for binding and activating the I-C6 receptor [2]: (−)citronellal>(+)citronellal, citronellyl bromide>28 other odorants
- intracellular Ca2+ response ([2]; 30 μM): small response
- intracellular Ca2+ response ([2]; control experiments lacking Gα15,16): no response

Compound: C=C(C)[C@H]1CC=C(C)C(=O)C1 [(+) carvone]
- intracellular Ca2+ response of a clone pool ([1]; 10 μM): lack of response
- intracellular Ca2+ response [4]: responsive

Compound: CC(C)=CCC/C(C)=C/C=O [+/− citral]
- intracellular Ca2+ response ([2]; 30 μM): only 30 μM (−) citronellyl bromide elicited a small response

Compound: C=C(C)C1CC=C(C)C(=O)C1 (stereo not shown) [carvone]
- response of a library receptor [1]: responded
- intracellular Ca2+ response ([2]; 100 μM): no responses

Compound: CC(C)NCC(O)c1ccc(O)c(O)c1 (stereo not shown) [isoproterenol]
- intracellular Ca2+ response (FURA-2 F340/F380) ([5]; bath application, cells co-transfected with Gα15,16): transient increase in intracellular Ca^2+
- Ca2+ response to a second application ([5]; second application (desensitization)): frequently failed to elicit a response
- dependence of the Ca2+ transient on Gα15,16 ([5]; with vs without cotransfected Gα15,16): dependent on cotransfection with the Gα15,16 subunits
- intracellular Ca2+ response [6]: small response

Compound: C=C(C)[C@H]1CC=C(C)CC1 [limonene]
- response of a library receptor [1]: responded
- intracellular Ca2+ response ([2]; 100 μM): no responses

Compound: (−) citral demethyl acetal
- intracellular Ca2+ response ([2]; 30 μM): only 30 μM (−) citronellyl bromide elicited a small response

Compound: (−) limonene
- Ca2+ response relative to the (+) isomer [3]: perhaps not as well
- intracellular Ca2+ response [3]: responded
